Consider eight molecules from patent US6465007B1, “Transgene expression in polarized cells” (Genzyme Corporation, priority 1998, dated 2002).

The test system of data set [1] is polarized NHBE cells. Description: Binding and internalization of cationic lipid:pDNA complexes (TOTO-1 label, trypan blue quenching). The note with it: Table 1; grades Very Effective / Mildly Effective. Here is the method: Cells were incubated with TOTO-1 or Rh-PE labeled complexes at 37° C. for the times noted in the figure legends. Following incubation, cells were washed 7 times with cold PBS and then fixed in 2% paraformadehyde for 20 min at 4° C. The membrane of the insert was removed and mounted using immuno-mount (Shandon, Pittsburgh, Pa.) containing 2 μg/ml DAPI (Molecular Probes). Bound and internalized complexes were observed under a fluorescence microscope (Olympus, AX-70). To observe only internalized complexes, cells were washed 2 times with cold PBS and then the fluorescence of surface bound complexes was quenched by a 10 min incubation with trypan blue (1 mg/ml; Diagnostic Systems, Inc., Gibbstown, N.J.) on ice. Cells were then washed an additional 5 times with cold PBS, fixed and mounted.
Polarized NHBE cells were cultured using a modified procedure based on the methods described by Yamaya et al., American Journal of Physiology, 265:L170-L177 (1993), Jiang et al., Science, 262:424-427 (1993) and Gray et al., American Journal of Respiratory Cell & Molecular Biology, 14:104-112 (1996). Briefly, first passage NHBE cells were plated at a density of 2.5×10^5 cells/cm^2 onto inserts (Millicell-PCF, 0.4 μm pore size, Millipore) coated with human placental collagen (Sigma). The culture medium was the same as that described above for growing NHBE cells as islands. Cultures were maintained under air-liquid interface conditions starting at day 3 following the initial seeding. Cells were considered ready for use when the trans-epithelial resistance was •1000 Ωcm^2.

Data set [2] relates to CF patients. The note with it: cited from earlier work.
Data set [3] concerns polarized NHBE cells. Description: In vitro transfection with GL-67:pCF1-SEAP, secreted alkaline phosphatase in apical supernatant. Type of data set: cell-based, human. As to conditions: 0.5 μg/ml, 18 h before and after transfection, with or without Ca2+-free medium; FIG. 2A. As for the experimental part:
Prior to transfection, polarized NHBE cells on inserts were incubated in either Opti-MEM, Opti-MEM containing 0.1% EGTA, or in Ca^2+-free media (Gibco) in both sides of the insert for 30 min at 37° C. The cells were then washed 3 times with Opti-MEM, and incubated with unlabeled GL-67:pCF1-SEAP (40:53 μM) for 4 h at 37° C., after which they were washed 3 times with Opti-MEM. One ml of culture medium then was added to the outside of the insert (basal side) and 100 μl added to the inside of the insert (apical side). The supernatant from the apical side was collected on day 2 after transfection, heated at 65° C. for 1 h to denature endogenous alkaline phosphatases (Berger et al., Gene, 1988), and assayed in triplicate for secreted alkaline phosphatase (SEAP) activity using an alkaline phosphatase reagent (Sigma) and human placental alkaline phosphatase (Calbiochem, La Jolla, Calif.) as a standard.
(§1) To inhibit NHBE cell proliferation, aphidicolin (0.5 μg/ml; Sigma) was added to culture medium on the basal side of the polarized NHBE cells for 18 h at 37° C. The cells were then transfected as described above except that the concentrations of cationic lipid and pDNA were 80 and 107 μM, respectively. After transfection, aphidicolin was present in the culture medium until the cells were harvested. […] Retinoic acid enhanced the inhibitory effect of aphidicolin on cell proliferation (Chou, R. H. et al., Cell & Tissue Kinetics, 18:387-97, 1985).

The test system of data set [4] is NHBE cells. The data set is described as follows: Cell proliferation assay, [methyl-3H]-thymidine incorporation into DNA. In kind it is cell-based, human. As for the experimental part:
The proliferation of NHBE cells was assessed by measuring the amount of [methyl-^3H] thymidine incorporation into DNA (Fasbender et al., Gene Therapy, 4:1173-1180, 1997). [Methyl-^3H] thymidine (5 μCi/ml; Amersham, Arlington Heights, Ill.) was added to culture medium on the basal side of polarized NHBE cells which had been pre-treated with either Opti-MEM or Ca^2+-free medium. After 4 h, both groups of cells were washed 3 times with PBS and then lysed in a buffer containing 0.2% SDS, 100 mM Tris (pH=7.0), 5 mM EDTA, 200 mM NaCl, and 0.5 mg/ml proteinase K. The lysate was incubated at 65° C. for 30 min, microcentrifuged for 5 min and the supernatant placed into a fresh tube. An equal volume of isopropanol was added to precipitate the DNA. The precipitated DNA pellet was washed twice with 70% ethanol, dried, and resuspended in a 10 mM Tris-HCl, 0.5 mM EDTA buffer, pH 8.0. The DNA concentration was determined using A260/280 measurements. Tritium counts were measured using a Beckman LS6500 scintillation counter.
as §1

Data set [5] relates to mouse trachea. Description: Intranasal instillation of Ad2βgal-4, X-gal staining of airways. In kind it is in vivo. As for the experimental part:
Female BALB/c mice 9-12 weeks of age were purchased from Taconic (Germantown, N.Y.). In some groups, mice were instilled intranasally with 25 μl of a solution containing EGTA (pH 7.5), followed by 25 μl of 5% sucrose in PBS containing Adβgal-4 (2×10^8 IU). In other groups, mice were co-instilled with 25 μl of a solution prepared by mixing equal volumes of a 2× (4×10^8 IU/25 μl) Ad2βgal-4 solution in 10% sucrose with 2×EGTA prior to instillation.
Cytochemical localization of Ogal expression in the trachea was observed using 5-bromo-4-chloro-3-indolyl-β-D-galactopyranoside (X-gal; Sigma). In brief, cannulated mouse lungs were fixed for 10 min by infusion of a fixing solution (2% paraformaldehyde and 0.2% glutaraldehyde in PBS). The lungs were then rinsed twice with 50 mM glycine in PBS, filled with X-gal solution, and stained overnight. Staining was stopped by transfering the samples into the fixing solution.
Trachea with staining levels were defined on a scale of 0 to 3, 0 indicating no cells staining for βgal, and a value of 3 indicating a large number of cells positive for the transgene. To evaluate the effect of EGTA concentration on AdV-mediated gene transfer in the trachea, mice were pre-treated with various concentrations of EGTA 0.5 h before AdV instillation. In some animals, AdV and EGTA were co-instilled. To exclude the possibility that any observed enhancement of expression was due to a hyperosmotic effect of the EGTA solution, a 20% mannitol solution (osmolarity similar to 0.4M EGTA) was included as a control in both the pre-treatment and co-instillation models.

Data set [6] has as its system mouse nose. The note with it: cited from earlier work.
Data set [7] in a line: Stabilization of cationic lipid:pDNA complexes by PEG-containing lipid. The note with it: 1.14 mol % relative to total lipid. Type of data set: physicochemical. As for the experimental part:
For example, at 1.14 mol % DMPE-PEG5000 (relative to the amount of total lipid), cationic lipid:pDNA complexes could be stabilized at pDNA concentrations exceeding 20 mM. Without PEG-containing lipids, a salt excipient, which is not preferred since an ionic excipient also depresses transfection activity, is required to maintain the lipid:pDNA ratio of the complex during certain methods such aerosolization. For more information regarding use of PEG derivatives the following references are specifically incorporated by reference: Simon J. Eastman et al., Human Gene Therapy, 8, pp. 765-773 (1997); Simon J. Eastman et al. Human Gene Therapy, p. 8, pp. 313-322 (1997).

The mark [8] stands for this setting: 0.5 μg/ml in culture medium containing 50 nM retinoic acid.

For the molecule `CCCCCCCCCC(=O)O[C@H](CC(=O)[O-])C[N+](C)(C)C` [Decanoylcamitine, decanoylcarnitine], the “Effects of Tight Junction Disrupting Compounds on Cationic Amphiphile: DNA Complex Binding” value (“Effects … DNA Complex Binding” below) in data set [1] is reported as “Mildly Effective”.

Consider `O=C(O)CN(CCN(CC(=O)O)CC(=O)O)CC(=O)O` [EDTA, Ethylenediaminetetraacetic acid], for which the toxic side-effects entry in data set [2] (0.2 g in 10 ml injected, or 0.6 g in 300 ml nebulized over 24 h, via tracheostomy once per day for 3 days) is “No toxic side-effects were noted”. The adverse effects result in data set [2] (children with CF, aerosol of 0.05M 3 times/day for 2 weeks) was “no adverse effects”. Besides, in data set [2] (children with CF, aerosol of 0.1 M 3 times/day for 2 weeks), the tolerability result is listed as “Three out of ten could not tolerate”. In addition, in data set [2] (same phase I trial), the respiratory function result is reported as “remained unchanged”; the “serum calcium and magnesium levels” value is “remained normal”. In data set [1], the “Effects … DNA Complex Binding” value is recorded as “Very Effective”.

Turning to `CCCCCCCCCC(=O)[O-].[Na+]` [Sodium Caprate, sodium caprate], the “Effects … DNA Complex Binding” value in data set [1] is “Mildly Effective”.

For `C[C@H](CCC(=O)NCC(=O)[O-])[C@H]1CC[C@H]2[C@@H]3[C@H](O)C[C@@H]4C[C@H](O)CC[C@]4(C)[C@H]3C[C@H](O)[C@]12C.[Na+]` [Sodium glycocholate, sodium glycocholate], in data set [1], the “Effects … DNA Complex Binding” value is listed as “Mildly Effective”.

`C[C@@]1(CO)[C@H](O)CC[C@@]2(C)[C@H]1CC[C@H]1C[C@@H]3C[C@@]12CC[C@]3(O)CO` [aphidicolin]: the “effect on gene expression from polarized NHBE cells” value in data set [3] is recorded as “no effect on gene expression”. In addition, in data set [4] (setting [8]), the “inhibition of proliferation of NHBE cells” value is “sufficient to inhibit proliferation” and the toxicity result is “minimal toxicity”. Also, the “[methyl-3H]-thymidine incorporation” value in data set [4] (NHBE cells grown on plastic, presence of aphidicolin) is 6,600±600 cpm/μg DNA.

As to `OC[C@@H](O)[C@@H](O)[C@H](O)[C@H](O)CO` [mannitol], the “X-gal staining in the trachea” value in data set [5] (20% pre-treatment, compared with AdV alone, FIG. 4) is recorded as “not different”. For the same molecule, in data set [5] (pre-treating with hyperosmotic solution, FIGS. 4 & 5A), the “enhancement in gene transfer” value was “No comparible enhancements”.

In the case of polidocanol, in data set [6], the “AdV-mediated gene expression in respiratory epithelial cells” value was “enhanced AdV-mediated gene expression”.

Regarding “polyethylene glycol 5000-dimyristoylphosphatidylethanolamine [DMPE-PEG5000]”, the “pDNA concentration at which cationic lipid:pDNA complexes could be stabilized” value in data set [7] is reported as “exceeding 20 mM”.
